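How tested: cells in 96-well plates exposed to compound for 48 hours at five concentrations. The concentration for 50% growth inhibition is given as GI50. TGI is the concentration that stops growth completely.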
Legend:
Experiment in all cases: DTP human tumour cell line panel, 48 h
HT29 colon = test system: HT29 colon
NCI-H522 lung = test system: NCI-H522 lung
NCI-H226 lung = test system: NCI-H226 lung
SK-MEL-28 melanoma = test system: SK-MEL-28 melanoma
OVCAR-8 ovarian = test system: OVCAR-8 ovarian
HCT-116 colon = test system: HCT-116 colon
SK-MEL-2 melanoma = test system: SK-MEL-2 melanoma
A549 NSCLC = test system: A549 NSCLC
LOX IMVI melanoma = test system: LOX IMVI melanoma
RPMI-8226 leukemia = test system: RPMI-8226 leukemia

| Structure (SMILES) | TGI (HT29 colon) [µM] | TGI (NCI-H522 lung) [µM] | TGI (NCI-H226 lung) [µM] | TGI (SK-MEL-28 melanoma) [µM] | TGI (OVCAR-8 ovarian) [µM] | TGI (HCT-116 colon) [µM] | TGI (SK-MEL-2 melanoma) [µM] | TGI (A549 NSCLC) [µM] | TGI (LOX IMVI melanoma) [µM] | TGI (RPMI-8226 leukemia) [µM] | GI50 (RPMI-8226 leukemia) [µM] | GI50 (NCI-H522 lung) [µM] | GI50 (NCI-H226 lung) [µM] | GI50 (SK-MEL-28 melanoma) [µM] | GI50 (OVCAR-8 ovarian) [µM] | GI50 (HCT-116 colon) [µM] | GI50 (SK-MEL-2 melanoma) [µM] | GI50 (A549 NSCLC) [µM] | GI50 (LOX IMVI melanoma) [µM] |
| --- | --- | --- | --- | --- | --- | --- | --- | --- | --- | --- | --- | --- | --- | --- | --- | --- | --- | --- | --- |
| O=C(c1cccs1)N(C(=S)OC12CC3CC(CC(C3)C1)C2)c1ccccc1 | > 100 | 46 | > 100 | > 100 | > 100 | 59.3 | 39.3 | > 100 | 92.9 |  |  |  |  |  |  |  |  |  |  |
| COC(=O)c1sc(=S)sc1SCc1ccc(CSc2sc(=S)sc2C(=O)OC)cc1 | > 100 | > 100 | > 100 | > 100 | > 100 | > 100 | > 100 | > 100 | > 100 |  |  |  |  |  |  |  |  |  |  |
| CC1=CC(=O)c2ccccc2C1=O | 34.1 | 11.7 | 31 | 16.6 | 22.7 | 5.33 | 22.7 | 40.2 | 5.72 | 5.39 |  |  |  |  |  |  |  |  |  |
| O=C(C[n+]1ccc2ccccc2c1)c1ccc2ccc3ccccc3c2c1 | 12.2 | 21.8 | 25.3 | 9.08 | 19.8 | 13.6 | 15.9 | 16.6 | 6.57 | 0.646 |  |  |  |  |  |  |  |  |  |
| COc1ccc(CC(=O)N2CCC3(C)CC(=O)CC=C23)cc1OC (centres undefined) | > 100 | > 100 | > 100 | > 100 | > 100 | > 100 | > 100 | > 100 | > 100 | > 100 |  |  |  |  |  |  |  |  |  |
| CC12CC3OC(=O)C1COC14OC5(C2C1=O)C(O)(CCC1C4CC(O)C2(O)CC=CC(=O)C12C)C(=O)OC35C (centres undefined) | > 100 | > 100 | > 100 | > 100 | > 100 | > 100 | > 100 | > 100 | > 100 | > 100 |  |  |  |  |  |  |  |  |  |
| CNc1ccc2c(c1)[C@@]1(C)c3ccccc3[C@@H](C2)N1C | 64.8 | 37.7 |  |  |  | 33.4 | 51.7 | > 100 | 36.6 | 38.9 |  |  |  |  |  |  |  |  |  |
| C=CCc1cccc2cc(C(=O)Nc3ccccc3)c(=N)oc12 | > 100 | > 100 | > 100 | > 100 | > 100 | > 100 | 38.5 | > 100 | > 100 | > 100 |  |  |  |  |  |  |  |  |  |
| COc1ccc(C(=O)/C=C/c2cccc([N+](=O)[O-])c2)c(OC)c1 |  | > 50 | 7.77 | > 50 | > 50 | 1.68 | > 50 | > 50 | 1.94 | 3.14 | 1.09 | 1.6 | 1.65 | 4.75 | 1.78 | 0.767 | 12.4 | 2.56 | 0.895 |
| COc1ccc2c(c1)[nH]c1c(/C=C/c3ccccc3)nccc12 | 33.9 | 29 | 53.1 | 31.9 | 42.2 | 30.4 | 33.2 | 37.2 | 63.2 | 93.5 |  |  |  |  |  |  |  |  |  |
| CC1=NN(c2cccc(Cl)c2)C2(SCC(=O)N2c2nc3ccccc3s2)/C1=C\c1cccs1 (centres undefined) | 46.6 | 61.8 | 50.7 | 85.6 | 51.8 | 52.1 | 41.8 | 92.8 | 66.5 | 38.7 |  |  |  |  |  |  |  |  |  |
| CCn1c(-c2ccc(N=NNc3ccc(-c4n[nH]c(=S)n4CC)cc3)cc2)n[nH]c1=S | > 100 | 5.71 | 5.86 | > 100 | 6.96 | > 100 | 4.45 | > 100 | > 100 | 5.64 |  |  |  |  |  |  |  |  |  |
| CC(=O)C1=C(C)N(c2ccc(C)cc2)C2(O)C=CC(=O)C3C(=O)N(c4ccccc4)C(=O)C132 (centres undefined) | 44.8 | 22 | 34.3 | 43.8 | 59.2 | > 100 | 28.8 | > 100 |  | > 100 |  |  |  |  |  |  |  |  |  |
| CNC(=O)OCc1c(CO)nc(SC)n1C | > 100 | > 100 | > 100 | > 100 | > 100 | > 100 | > 100 | > 100 | > 100 | > 100 |  |  |  |  |  |  |  |  |  |
| [N-]=[N+]=CC(=O)c1ccccc1C#CCCc1ccccc1 | 36.7 | 30.9 | 98.3 | > 100 | > 100 | 48.9 | 79.7 | > 100 | > 100 | 50.2 |  |  |  |  |  |  |  |  |  |
| NC(=O)c1cc2ccc(O)cc2oc1=Nc1ccccc1 | > 100 | 77.9 | 88.6 | > 100 | > 100 | > 100 | 53 | > 100 | > 100 | 63.8 |  |  |  |  |  |  |  |  |  |
| CCC1CN(C(=O)c2ccccc2)C(Cc2c[nH]c3ccccc23)C(=O)C1CC(=O)OC (centres undefined) | > 100 | > 100 | > 100 | > 100 | > 100 |  | > 100 |  | > 100 |  |  |  |  |  |  |  |  |  |  |
| NCCCCc1cc(O)c2c(c1O)C(=O)c1ccccc1C2=O | 16.7 | 23.7 | 19.2 | 33.6 | 16.3 | 18.1 | 32.4 | 16.9 | 21.2 | 29.2 |  |  |  |  |  |  |  |  |  |
| CCCNC(=O)CCC(C)C1CCC2C3C(C[C@H](OC(C)=O)[C@]12C)[C@@]1(C)CCC2(C[C@H]1C[C@H]3OC(C)=O)OOC1(CC[C@]3(C)C4C[C@H](OC(C)=O)[C@]5(C)C(C(C)CCC(=O)NCCC)CCC5C4[C@H](OC(C)=O)C[C@@H]3C1)OO2 (some centres undefined) | > 100 | > 100 | > 84.7 | > 100 | > 93.9 | > 100 | > 100 | > 100 | > 100 | > 100 |  |  |  |  |  |  |  |  |  |
| C[C@H](NC(=O)c1ccc(CNC(=O)/C=C/c2cccc(Oc3ccccc3)c2)cc1)c1ccccc1 | > 100 | > 100 | > 100 | > 100 | > 100 | > 100 | > 100 | > 100 | > 100 | > 100 |  |  |  |  |  |  |  |  |  |

From PubChem BioAssay (NCI)
